Data taken from ChEMBL document CHEMBL1140922, “Detection of metabolite changes in C6 glioma cells cultured with antimitotic oleyl glycoside by 1H MAS NMR” (2009).
Activity calls are given as the source filed them. The rule behind the calls is not given here.

Assays:
[1] = system: C6; experiment: Effect on metabolic changes in rat C6 cells assessed as ratio of CoA to creatine at 10 uM after 24 hrs by NMR analysis; format: functional
[2] = system: C6; experiment: Induction of apoptosis in rat C6 cells assessed inhibition of cell division; format: functional, cell-based
[3] = system: C6; experiment: Induction of apoptosis in rat C6 cells assessed as DNA fragmentation at 80 uM after 19 hrs by electrophoresis; format: functional, cell-based
[4] = system: C6; experiment: Cytotoxicity against rat C6 cells assessed as necrotic cells at 80 uM after 19 hrs; format: functional, cell-based
[5] = system: C6; experiment: Effect on metabolic changes in rat C6 cells assessed as increase in choline signal at 10 uM after 48 hrs by NMR analysis; format: functional
[6] = system: C6; experiment: Induction of apoptosis in rat C6 cells assessed as DNA fragmentation at 40 uM after 19 hrs by electrophoresis; format: functional, cell-based
[7] = system: C6; experiment: Induction of apoptosis in rat C6 cells assessed cell death at > 40 uM; format: functional, cell-based

CCCCCCCC/C=C\CCCCCCCCO[C@H]1O[C@H](CO)[C@@H](O)[C@H](O)[C@H]1NC(C)=O
Ratio [1]: 0.32
Activity [2]: Active
Activity [3]: Active
Activity [4]: inactive
Activity [5]: 2.47
Activity [6]: Active
Activity [7]: Active
